Results from US7662789B2, “Peptide substance restoring myocardium function” (“Access Bioscience” CJSC, priority 2004, dated 2010).
Marks after values point to notes of the source that are not given here. Where a SMILES comes first, the peptide text is derived from it.

Experiments:
[1] = test system: experimental myocardium infarction in rats; test: Experimental myocardium infarction by left coronary artery vasoligation in rats; format: in vivo; conditions: for Necrosis zone size, % of ventricle mass: 0.05 μg per animal i.p. 1, 3, 5 h after occlusion; for Death rate: 20 animals per group
Procedure: The experiment was conducted on 40 white mongrel rats each weighing 180-200 g. The animals were randomly subdivided into two groups, 20 animals in each. Myocardium infarction (MI) was induced by vasoligation of the left coronary artery. Ala-Glu-Asp-Arg tetrapeptide was administered to the animals intraperitoneally in the dose of 0.05 μg per animal in sterile 0.9% NaCl solution three times—in 1, 3 and 5 hours after coronary occlusion. Rats were decapitated in 6 and 24 hours after the surgery. Animals subjected to the surgery, which intraperitoneally received 0.9% NaCl solution, served as the control. MI zone size was identified gravimetrically. Myocardium fragments were fixed for light and electronic microscopy, part of the material was frozen in liquid nitrogen for biochemical studies.

succinate dehydrogenase = conditions: myocardium slices from different animals
isolated rat heart [2] = test: Contractive ability of isolated rat heart after ischemia; conditions: 10 min re-perfusion
Procedure: Another experiment was devoted to the study of the tetrapeptide's effect on the restoration of isolated rat heart's ability to contract after a period of ischemia. The study was conducted on 3 groups, 8 animals in each, in case of the additionally strained cardiac muscle working mode, under conditions of induced contraction rhythm and perfusion solution temperature increase up to 37° C.
The other series of experiments conducted on 12 rat hearts was aimed at the study of the tetrapeptide's protective effect in case of its addition into the perfusate in the concentration of […] before the induction of ischemia. Then “severe” stimulation was conducted (5 Hz frequency) in the heart and contractive activity was estimated. […] The administration of the tetrapeptide in a very small dose of 0.005 μg/ml preserved the heart, which was on the verge of stopping, from fibrillation and contractive activity decrease, restoring the value of the latter index.

isolated cardiomyocytes = test: Cardiomyocyte bioenergetics, polarographic oxygen consumption; format: cell-based, rats
Procedure: Cardiomyocytes were extracted from the cardiac muscle of pubertal rats by Vahouny. Oxygen consumption by isolated cardiomyocytes was registered polarographically at the temperature of 30° C. Part of cardiomyocytes suspension was oxygenated by saturation with carbogen for 1-3 hours at room temperature. The other part of suspension was not oxygenated (conditions of moderate hypoxia). […] The tetrapeptide was introduced into the medium in the concentration of 10 ng/ml.

isolated rat heart [3] = test: Contractive ability of isolated rat heart after ischemia; conditions: 0.005 μg/ml; 12 rat hearts; severe stimulation 5 Hz
[4] = test system: isolated guinea pig heart; test: Isolated guinea pig heart, Langendorf perfusion, 30 min total ischemia and re-perfusion; design: species or system guinea pigs
Procedure: The experiment was conducted under conditions of perfusion in isolated hearts of 60 male guinea pigs, by Langendorf. The animals were randomly subdivided into several groups, each consisting of 6 animals. Total cardiac ischemia was induced by means of fully tightening the perfusional solution hose for 30 minutes. Then re-perfusion was performed under the same conditions as before ischemia (control group). In experimental animals perfusion was performed together with Ala-Glu-Asp-Arg (SEQ ID NO:1) tetrapeptide in the concentrations of 0.002-0.05 μg/ml. Mechanical contractions were registered, bioptates, weighing approximately 10 mg, were several times taken from the top of the heart, then the content of malon dialdegide (MDA) was identified in them. The hearts in the end of the experiment and partially before ischemia were frozen in liquid nitrogen for ATP, ADP and AMP content identification.

[5] = test system: chlorine-calcium arrhythmia in rats; test: Chlorine-calcium (CaCl2) arrhythmia in rats; format: in vivo; conditions: for Death after the first arrhythmogen administration, abs.: 10 animals
Procedure: The experiment was conducted on 60 white mongrel rats with body weight of 180-200 g. The animals were randomly subdivided into 6 groups, each consisting of 10 animals. The rats were narcotized with urethane and received 220 mg/kg of 10% CaCl2 solution. Ala-Glu-Asp-Arg tetrapeptide was administered to the animals intraperitoneally, once, in the doses of 0.05-1.0 μg/kg in sterile 0.9% NaCl solution.

[6] = 0.05 μg per animal i.p., 6 hours
[7] = 0.05 μg per animal i.p., 24 hours
[8] = 0.005 μg/ml, listed as tetrapeptide
[9] = 0.002 μg/ml, re-perfusion 15 min
[10] = 0.002 μg/ml, re-perfusion 30 min
[11] = 0.005 μg/ml, re-perfusion 15 min
[12] = 0.005 μg/ml, re-perfusion 30 min
[13] = 0.01 μg/ml, re-perfusion 15 min
[14] = 0.01 μg/ml, re-perfusion 30 min
[15] = 0.05 μg/ml, re-perfusion 15 min
[16] = 0.05 μg/ml, re-perfusion 30 min

## C[C@H](N)C(=O)N[C@@H](CCC(=O)O)C(=O)N[C@@H](CC(=O)O)C(=O)N[C@@H](CCCNC(=N)N)C(=O)O [Tetrapeptide, L-alanyl-L-glutamyl-L-aspartyl-L-arginine] (H-AEDR-OH)
[1]; 6 hours
  Necrosis zone size, % of ventricle mass: 38.1 ± 1.8 % of ventricle mass
[1]; 24 hours
  Necrosis zone size, % of ventricle mass: 49.6 ± 1.6 % of ventricle mass
[1]; [6]
  Content in the blood serum: CPK: 961 ± 52 nmole/s · 1
  Content in the blood serum: LDH: 309 ± 16 nmole/s · 1
  Content in the blood serum: glucose: 3.12 ± 0.09 mmol/L
  Glycogen content in the myocardium: 1.05 ± 0.12 g/kg of the tissue
  Death rate: 2
[1]; [7]
  Content in the blood serum: CPK: 923 ± 38 nmole/s · 1
  Content in the blood serum: LDH: 201 ± 15 nmole/s · 1
  Content in the blood serum: glucose: 3.01 ± 0.11 mmol/L
  Glycogen content in the myocardium: 1.18 ± 0.12 g/kg of the tissue
  Death rate: 1
[1]; 0.05 μg per animal i.p., control 45%
  Mortality rate during the first 24 hours after infarction: 15%
[1]; acute myocardium ischemia, versus control
  Decrease of glucose content in the blood: ~1.5 times
[1]; electronograms, 24 hours since beginning of MI, control 41.5±2.4
  Coefficient of mitochondria energy efficiency: 93.2±2.3%
Succinate dehydrogenase
  Activity of succinate dehydrogenase: inhibiting effect
Isolated rat heart [2]; 0.005 μg/ml
  Amplitude of contractions, % of init.: 75 ± 12 % of init.
  Coronary duct: 10.8 ± 1.6 mL/min
  Extent of contracture: 1.3 ± 0.4 mm
  Max. speed of contraction, % of init.: 56 ± 10 % of init.
  Max. speed of relaxation, % of init.: 69 ± 8 % of init.
Isolated rat heart [2]; [8]
  Amplitude of contractions, % of init.: 75±12 % of init.
  Coronary duct: 10.8 ± 1.6 mL/min
Isolated rat heart [2]; 0.05 μg/ml
  Amplitude of contractions, % of init.: 36 ± 10 % of init.
  Coronary duct: 9.6 ± 0.7 mL/min
  Extent of contracture: 2.5 ± 0.3 mm
  Max. speed of contraction, % of init.: 28 ± 7 % of init.
  Max. speed of relaxation, % of init.: 28 ± 6 % of init.
Isolated cardiomyocytes; 10 ng/ml, hypoxia, succinate 1×10^−4 M, without tetrapeptide 7.35±0.26
  Coefficient of breath stimulation (breath rate with succinate to initial breath rate): 1.97±0.26
Isolated cardiomyocytes; tetrapeptide in the medium
  NAD.H2 oxidation by cardiomyocytes: increases NAD.H2 oxidation by cardiomyocytes
Isolated rat heart [3]
  Protective effect when added into the perfusate before induced ischemia: restrained the growth of contracture during the period of ischemia
[4]; 0.002 μg/ml, before ischemia
  Amplitude of contractions, % of initial: 100 % of initial
  MDA: 225 ± 23 nmole/g of tissue
[4]; [9]
  Amplitude of contractions, % of initial: 70 ± 13 % of initial
  MDA: 216 ± 5 nmole/g of tissue
[4]; [10]
  Amplitude of contractions, % of initial: 81 ± 16 % of initial
  MDA: 220 ± 12 nmole/g of tissue
[4]; 0.005 μg/ml, before ischemia
  Amplitude of contractions, % of initial: 100 % of initial
  MDA: 168 ± 25 nmole/g of tissue
[4]; [11]
  Amplitude of contractions, % of initial: 89 ± 6 % of initial
  MDA: 231 ± 7 nmole/g of tissue
[4]; [12]
  Amplitude of contractions, % of initial: 93 ± 5 % of initial
  MDA: 186 ± 10 nmole/g of tissue
[4]; 0.01 μg/ml, before ischemia
  Amplitude of contractions, % of initial: 100 % of initial
  MDA: 203 ± 18 nmole/g of tissue
[4]; [13]
  Amplitude of contractions, % of initial: 61 ± 4 % of initial
  MDA: 248 ± 8 nmole/g of tissue
[4]; [14]
  Amplitude of contractions, % of initial: 64 ± 3 % of initial
  MDA: 220 ± 9 nmole/g of tissue
[4]; 0.05 μg/ml, before ischemia
  Amplitude of contractions, % of initial: 100 % of initial
  Energy charge: 7.78 ± 0.14 μmole of adenosine phosphates/g of tissue
  MDA: 156 ± 28 nmole/g of tissue
[4]; [15]
  Amplitude of contractions, % of initial: 38 ± 13 % of initial
  MDA: 264 ± 13 nmole/g of tissue
[4]; [16]
  Amplitude of contractions, % of initial: 32 ± 9 % of initial
  Energy charge: 2.98 ± 0.35 μmole of adenosine phosphates/g of tissue
  MDA: 252 ± 11 nmole/g of tissue
[4]; 0.002-0.005 μg/ml, before ischemia
  Energy charge: 7.68 ± 0.21 μmole of adenosine phosphates/g of tissue
[4]; 0.002-0.005 μg/ml, re-perfusion 30 min
  Energy charge: 6.01 ± 0.23 μmole of adenosine phosphates/g of tissue
[4]; perfusion without ischemia
  Influence on the status of the normal heart: does not influence the status of the normal heart
[5]; 0.05 μg/kg i.p. once
  Death after the first arrhythmogen administration, %: 50%
  Frequency of sinus rhythm restoration after the first CaCl2 administration: 27.0%
  Frequency of ventricle fibrillation development in the course of the experiment: 60.3%
  Maximum tolerable arrhythmogen dose: 220 mg/kg
  Death after the first arrhythmogen administration, abs.: 5
[5]; 0.1 μg/kg i.p. once
  Death after the first arrhythmogen administration, %: 50%
  Frequency of sinus rhythm restoration after the first CaCl2 administration: 29.6%
  Frequency of ventricle fibrillation development in the course of the experiment: 45.8%
  Maximum tolerable arrhythmogen dose: 220 mg/kg
  Death after the first arrhythmogen administration, abs.: 5
[5]; 0.2 μg/kg and 0.5 μg/kg, bradicardia rats
  Increase of frequency of heart contractions (FHC): 12.3-48.6%
[5]; 0.2 μg/kg i.p. once
  Death after the first arrhythmogen administration, %: 30%
  Frequency of sinus rhythm restoration after the first CaCl2 administration: 49.0* %
  Frequency of ventricle fibrillation development in the course of the experiment: 35.2* %
  Maximum tolerable arrhythmogen dose: 440 mg/kg
  Death after the first arrhythmogen administration, abs.: 3
[5]; 0.5 μg/kg i.p. once
  Death after the first arrhythmogen administration, %: 40%
  Frequency of sinus rhythm restoration after the first CaCl2 administration: 39.5* %
  Frequency of ventricle fibrillation development in the course of the experiment: 39.1* %
  Maximum tolerable arrhythmogen dose: 440 mg/kg
  Death after the first arrhythmogen administration, abs.: 4
[5]; 1.0 μg/kg i.p. once
  Death after the first arrhythmogen administration, %: 60%
  Frequency of sinus rhythm restoration after the first CaCl2 administration: 16.3%
  Frequency of ventricle fibrillation development in the course of the experiment: 43.6%
  Maximum tolerable arrhythmogen dose: 220 mg/kg
  Death after the first arrhythmogen administration, abs.: 6
[5]; doses 0.05-1.0 μg/kg i.p. tested
  Most efficient dose: 0.0002 mg/kg
